Results as given in patent publication US6518243B1, “Desleucyl glycopeptide antibiotics and methods of making same” (Trustees of Princeton University, priority 1999, dated 2003).

Experiments:
Assay in all cases: Zone of inhibition screen, 96 well agar array format
Format in all cases: cell-based
Design in all cases: scale not given here
[1] = system: S. epidermidis (ATCC 12228)
How it was run: (§1)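 Antibacterial testing on a 96-well agar array; each compound screened separately.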

[2] = system: S. aureus (ATCC 29213)
How it was run: as §1

[3] = system: E. faecalis (CL 4877)
How it was run: as §1

[4] = zone of inhibition relative to 1 mg/ml stock solution of p-chlorobiphenylvancomycin
[5] = zone of inhibition relative to 1 mg/ml p-chlorobiphenylvancomycin

SMILES | zone score, S. epidermidis ATCC 12228 [1, 4] | zone score, S. aureus ATCC 29213 [2, 4] | zone score, E. faecalis CL 4877 [3, 4] | zone score, S. epidermidis ATCC 12228 [1, 5] | zone score, S. aureus ATCC 29213 [2, 5] | zone score, E. faecalis CL 4877 [3, 5]
CC(=O)N[C@@H](Cc1c[nH]cn1)C(=O)N[C@H]1C(=O)N[C@@H](CC(N)=O)C(=O)N[C@H]2C(=O)NC3C(=O)N[C@H](C(=O)N[C@@H](C(=O)O)c4cc(O)cc(O)c4-c4cc3ccc4O)[C@H](O)c3ccc(c(Cl)c3)Oc3cc2cc(c3OC2OC(CO)C(O)C(O)C2OC2CC(C)(NCc3ccc(-c4ccc(Cl)cc4)cc3)C(O)C(C)O2)Oc2ccc(cc2Cl)[C@H]1O (stereo partly drawn) [Compound 181] | 2 | 2 | 2 |  |  | 
CC(=O)N1CCC[C@H]1C(=O)N[C@H]1C(=O)N[C@@H](CC(N)=O)C(=O)N[C@H]2C(=O)NC3C(=O)N[C@H](C(=O)N[C@@H](C(=O)O)c4cc(O)cc(O)c4-c4cc3ccc4O)[C@H](O)c3ccc(c(Cl)c3)Oc3cc2cc(c3OC2OC(CO)C(O)C(O)C2OC2CC(C)(NCc3ccc(-c4ccc(Cl)cc4)cc3)C(O)C(C)O2)Oc2ccc(cc2Cl)[C@H]1O (stereo partly drawn) [Compound 183] | 2 | 2 | 2 |  |  | 
CC1OC(OC2C(Oc3c4cc5cc3Oc3ccc(cc3Cl)C(O)C3NC(=O)C(NC(=O)C5NC(=O)C(CC(N)=O)NC(=O)C(NC(=O)C(Cc5c[nH]cn5)NC=O)C(O)c5ccc(c(Cl)c5)O4)c4ccc(O)c(c4)-c4c(O)cc(O)cc4C(C(=O)O)NC3=O)OC(CO)C(O)C2O)CC(C)(NCc2ccc(-c3ccc(Cl)cc3)cc2)C1O (stereo not drawn) [Compound 195] | 2 | 2 | 2 |  |  | 
CC1OC(OC2C(Oc3c4cc5cc3Oc3ccc(cc3Cl)C(O)C3NC(=O)C(NC(=O)C5NC(=O)C(CC(N)=O)NC(=O)C(NC(=O)CCC(N)=O)C(O)c5ccc(c(Cl)c5)O4)c4ccc(O)c(c4)-c4c(O)cc(O)cc4C(C(=O)O)NC3=O)OC(CO)C(O)C2O)CC(C)(NCc2ccc(-c3ccc(Cl)cc3)cc2)C1O (stereo not drawn) [Compound 202] | 2 | 2 | 2 |  |  | 
CC(NC(=O)OCc1ccccc1)C(=O)NCC(=O)NCC(=O)NC1C(=O)NC(CC(N)=O)C(=O)NC2C(=O)NC3C(=O)NC(C(=O)NC(C(=O)O)c4cc(O)cc(O)c4-c4cc3ccc4O)C(O)c3ccc(c(Cl)c3)Oc3cc2cc(c3OC2OC(CO)C(O)C(O)C2OC2CC(C)(NCc3ccc(-c4ccc(Cl)cc4)cc3)C(O)C(C)O2)Oc2ccc(cc2Cl)C1O (stereo not drawn) [Compound 209] |  |  |  | 2 | 2 | 2
CC1OC(OC2C(Oc3c4cc5cc3Oc3ccc(cc3Cl)C(O)C3NC(=O)C(NC(=O)C5NC(=O)C(CC(N)=O)NC(=O)C(NC(=O)CNC(=O)CNC(=O)CCNC(=O)OCc5ccccc5)C(O)c5ccc(c(Cl)c5)O4)c4ccc(O)c(c4)-c4c(O)cc(O)cc4C(C(=O)O)NC3=O)OC(CO)C(O)C2O)CC(C)(NCc2ccc(-c3ccc(Cl)cc3)cc2)C1O (stereo not drawn) [Compound 210] |  |  |  | 2 | 2 | 2
CC1OC(OC2C(Oc3c4cc5cc3Oc3ccc(cc3Cl)C(O)C3NC(=O)C(NC(=O)C5NC(=O)C(CC(N)=O)NC(=O)C(NC(=O)CNC(=O)C(CCC(N)=O)NC(=O)OCc5ccccc5)C(O)c5ccc(c(Cl)c5)O4)c4ccc(O)c(c4)-c4c(O)cc(O)cc4C(C(=O)O)NC3=O)OC(CO)C(O)C2O)CC(C)(NCc2ccc(-c3ccc(Cl)cc3)cc2)C1O (stereo not drawn) [Compound 211] |  |  |  | 2 | 2 | 2
CC1OC(OC2C(Oc3c4cc5cc3Oc3ccc(cc3Cl)C(O)C3NC(=O)C(NC(=O)C5NC(=O)C(CC(N)=O)NC(=O)C(NC(=O)C(CCC(N)=O)NC(=O)CNC(=O)OCc5ccccc5)C(O)c5ccc(c(Cl)c5)O4)c4ccc(O)c(c4)-c4c(O)cc(O)cc4C(C(=O)O)NC3=O)OC(CO)C(O)C2O)CC(C)(NCc2ccc(-c3ccc(Cl)cc3)cc2)C1O (stereo not drawn) [Compound 212] |  |  |  | 2 | 2 | 2
CC(NC(=O)CNC(=O)CNC(=O)OCc1ccccc1)C(=O)NC1C(=O)NC(CC(N)=O)C(=O)NC2C(=O)NC3C(=O)NC(C(=O)NC(C(=O)O)c4cc(O)cc(O)c4-c4cc3ccc4O)C(O)c3ccc(c(Cl)c3)Oc3cc2cc(c3OC2OC(CO)C(O)C(O)C2OC2CC(C)(NCc3ccc(-c4ccc(Cl)cc4)cc3)C(O)C(C)O2)Oc2ccc(cc2Cl)C1O (stereo not drawn) [Compound 213] |  |  |  | 2 | 2 | 2
CC1OC(OC2C(Oc3c4cc5cc3Oc3ccc(cc3Cl)C(O)C3NC(=O)C(NC(=O)C5NC(=O)C(CC(N)=O)NC(=O)C(NC(=O)C5CSC(=O)N5)C(O)c5ccc(c(Cl)c5)O4)c4ccc(O)c(c4)-c4c(O)cc(O)cc4C(C(=O)O)NC3=O)OC(CO)C(O)C2O)CC(C)(NCc2ccc(-c3ccc(Cl)cc3)cc2)C1O (stereo not drawn) [Compound 224] |  |  |  | 2 | 2 | 2
CC1OC(OC2C(Oc3c4cc5cc3Oc3ccc(cc3Cl)C(O)C3NC(=O)C(NC(=O)C5NC(=O)C(CC(N)=O)NC(=O)C(NC(=O)c5cccn5C)C(O)c5ccc(c(Cl)c5)O4)c4ccc(O)c(c4)-c4c(O)cc(O)cc4C(C(=O)O)NC3=O)OC(CO)C(O)C2O)CC(C)(NCc2ccc(-c3ccc(Cl)cc3)cc2)C1O (stereo not drawn) [Compound 229] |  |  |  | 2 | 2 | 2
CC1OC(OC2C(Oc3c4cc5cc3Oc3ccc(cc3Cl)C(O)C3NC(=O)C(NC(=O)C5NC(=O)C(CC(N)=O)NC(=O)C(NC(=O)Cc5ccc(Cl)cc5Cl)C(O)c5ccc(c(Cl)c5)O4)c4ccc(O)c(c4)-c4c(O)cc(O)cc4C(C(=O)O)NC3=O)OC(CO)C(O)C2O)CC(C)(NCc2ccc(-c3ccc(Cl)cc3)cc2)C1O (stereo not drawn) [Compound 234] |  |  |  | 2 | 2 | 2
COc1ccc(CCC(=O)NC2C(=O)NC(CC(N)=O)C(=O)NC3C(=O)NC4C(=O)NC(C(=O)NC(C(=O)O)c5cc(O)cc(O)c5-c5cc4ccc5O)C(O)c4ccc(c(Cl)c4)Oc4cc3cc(c4OC3OC(CO)C(O)C(O)C3OC3CC(C)(NCc4ccc(-c5ccc(Cl)cc5)cc4)C(O)C(C)O3)Oc3ccc(cc3Cl)C2O)cc1OC (stereo not drawn) [Compound 245] |  |  |  | 2 | 2 | 2
COc1ccc(C(=O)NC2C(=O)NC(CC(N)=O)C(=O)NC3C(=O)NC4C(=O)NC(C(=O)NC(C(=O)O)c5cc(O)cc(O)c5-c5cc4ccc5O)C(O)c4ccc(c(Cl)c4)Oc4cc3cc(c4OC3OC(CO)C(O)C(O)C3OC3CC(C)(NCc4ccc(-c5ccc(Cl)cc5)cc4)C(O)C(C)O3)Oc3ccc(cc3Cl)C2O)cc1OC (stereo not drawn) [Compound 253] |  |  |  | 2 | 2 | 2
CCOCCC(=O)N[C@H]1C(=O)N[C@@H](CC(N)=O)C(=O)N[C@H]2C(=O)N[C@H]3C(=O)N[C@H](C(=O)N[C@@H](C(=O)O)c4cc(O)cc(O)c4-c4cc3ccc4O)[C@H](O)c3ccc(c(Cl)c3)Oc3cc2cc(c3O[C@@H]2O[C@H](CO)[C@@H](O)[C@H](O)[C@H]2O[C@@H]2C[C@@](C)(NCc3ccc(-c4ccc(Cl)cc4)cc3)[C@@H](O)[C@@H](C)O2)Oc2ccc(cc2Cl)[C@H]1O [Compound 258] |  |  |  | 2 | 2 | 2
CC1OC(OC2C(Oc3c4cc5cc3Oc3ccc(cc3Cl)C(O)C3NC(=O)C(NC(=O)C5NC(=O)C(CC(N)=O)NC(=O)C(NC(=O)c5cccc(O)c5)C(O)c5ccc(c(Cl)c5)O4)c4ccc(O)c(c4)-c4c(O)cc(O)cc4C(C(=O)O)NC3=O)OC(CO)C(O)C2O)CC(C)(NCc2ccc(-c3ccc(Cl)cc3)cc2)C1O (stereo not drawn) [Compound 261] |  |  |  | 2 | 2 | 2
CC(O)CC(=O)N[C@H]1C(=O)N[C@@H](CC(N)=O)C(=O)N[C@H]2C(=O)N[C@H]3C(=O)N[C@H](C(=O)N[C@@H](C(=O)O)c4cc(O)cc(O)c4-c4cc3ccc4O)[C@H](O)c3ccc(c(Cl)c3)Oc3cc2cc(c3O[C@@H]2O[C@H](CO)[C@@H](O)[C@H](O)[C@H]2O[C@@H]2C[C@@](C)(NCc3ccc(-c4ccc(Cl)cc4)cc3)[C@@H](O)[C@@H](C)O2)Oc2ccc(cc2Cl)[C@H]1O (stereo partly drawn) [Compound 262] |  |  |  | 2 | 2 | 2
CC1OC(OC2C(Oc3c4cc5cc3Oc3ccc(cc3Cl)C(O)C3NC(=O)C(NC(=O)C5NC(=O)C(CC(N)=O)NC(=O)C(NC(=O)c5ccc(S(C)(=O)=O)cc5)C(O)c5ccc(c(Cl)c5)O4)c4ccc(O)c(c4)-c4c(O)cc(O)cc4C(C(=O)O)NC3=O)OC(CO)C(O)C2O)CC(C)(NCc2ccc(-c3ccc(Cl)cc3)cc2)C1O (stereo not drawn) [Compound 264] |  |  |  | 2 | 2 | 0
CC(=O)Oc1ccc(C(=O)NC2C(=O)NC(CC(N)=O)C(=O)NC3C(=O)NC4C(=O)NC(C(=O)NC(C(=O)O)c5cc(O)cc(O)c5-c5cc4ccc5O)C(O)c4ccc(c(Cl)c4)Oc4cc3cc(c4OC3OC(CO)C(O)C(O)C3OC3CC(C)(NCc4ccc(-c5ccc(Cl)cc5)cc4)C(O)C(C)O3)Oc3ccc(cc3Cl)C2O)cc1 (stereo not drawn) [Compound 266] |  |  |  | 2 | 2 | 2
CC1OC(OC2C(Oc3c4cc5cc3Oc3ccc(cc3Cl)C(O)C3NC(=O)C(NC(=O)C5NC(=O)C(CC(N)=O)NC(=O)C(NC(=O)c5ccc(S(N)(=O)=O)cc5)C(O)c5ccc(c(Cl)c5)O4)c4ccc(O)c(c4)-c4c(O)cc(O)cc4C(C(=O)O)NC3=O)OC(CO)C(O)C2O)CC(C)(NCc2ccc(-c3ccc(Cl)cc3)cc2)C1O (stereo not drawn) [Compound 269] |  |  |  | 2 | 2 | 2
